This is an account of results in patent US7435740B2 (King Pharmaceuticals Research and Development, Inc., priority 2005, dated 2008).

Series [1] concerns the target T1, human recombinant A2B adenosine receptor (Homo sapiens, UniProt P29275).
T1 sequence (P29275 1-332): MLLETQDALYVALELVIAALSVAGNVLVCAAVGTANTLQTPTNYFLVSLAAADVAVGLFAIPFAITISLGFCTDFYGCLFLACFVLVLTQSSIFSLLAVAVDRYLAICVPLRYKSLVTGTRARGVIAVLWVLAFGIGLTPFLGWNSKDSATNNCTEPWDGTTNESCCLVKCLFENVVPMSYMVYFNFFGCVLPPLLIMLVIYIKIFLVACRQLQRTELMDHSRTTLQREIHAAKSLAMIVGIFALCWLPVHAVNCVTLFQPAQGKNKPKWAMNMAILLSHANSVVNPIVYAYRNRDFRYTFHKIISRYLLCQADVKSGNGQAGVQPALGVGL
Description: cAMP assay in CHO hA2B. Type of series: cell-based. The following applies: for cAMP assay in CHO hA22B, percentage in parentheses: percentage given after the > bound, meaning not defined in the patent; for IC50: confidence limits in parentheses, read-out: cAMP assay in CHO hA22B IC50. (cAMP levels reflect the balance of adenylyl cyclase and phosphodiesterase activity.)

Series [2] has as its target T2, human recombinant A3 adenosine receptors (Homo sapiens, UniProt P0DMS8).
T2 construct: expressed in transfected cells; host or cells: CHO cells (membranes)
T2 sequence (P0DMS8 1-318): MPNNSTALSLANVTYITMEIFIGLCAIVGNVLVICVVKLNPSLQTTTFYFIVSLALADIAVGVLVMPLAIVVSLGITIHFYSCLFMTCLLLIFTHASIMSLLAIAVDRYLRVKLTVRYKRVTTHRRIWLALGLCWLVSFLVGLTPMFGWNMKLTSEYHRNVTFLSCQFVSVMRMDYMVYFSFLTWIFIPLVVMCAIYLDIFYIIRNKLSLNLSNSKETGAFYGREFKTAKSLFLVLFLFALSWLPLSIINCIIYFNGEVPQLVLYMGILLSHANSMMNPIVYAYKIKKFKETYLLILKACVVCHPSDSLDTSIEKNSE
Description: [3H]-MRE 3008F20 binding to hA3 receptors expressed in CHO cells. Particulars: for Ki: CHO cell membranes, 1 nM [3H]-MRE 3008F20, geometric mean, confidence limits in the line below, read-out: [3H] MRE3008F20 binding to hA3 receptors expressed in CHO cells Ki; for [3H] MRE3008F20 binding to hA3 receptors, percentage in parentheses: percentage printed below the > bound, meaning not defined in the patent.
Description: (§1) For membrane preparation the culture medium was removed and the cells were washed with PBS and scraped off T75 flasks in ice-cold hypotonic buffer (5 mM Tris HCl, 2 mM EDTA, pH 7.4).
(§2) The cell suspension was homogenized with Polytron and the homogenate was spun for 10 min at 1,000×g. The supernatant was then centrifuged for 30 min at 100,000×g. […] Then the suspension was frozen at −80° C.
Non-specific binding was defined as binding in the presence of 1 μM MRE 3008F20 and was about 30% of total binding.
(§3) Ki=IC50/(1+[C*]/KD*), where [C*] is the concentration of the radioligand and KD* its dissociation constant.

The target in series [3] is human recombinant A2A adenosine receptors (Homo sapiens, UniProt P29274). Description: Radioligand binding to hA2A receptors expressed in CHO cells. Particulars: for [3H] ZM 241385 binding to hA2A receptors, percentage in parentheses: percentage given after the > bound, meaning not defined in the patent.
Description: as §1, §2, §3
Series [4] deals with T3, human recombinant A1 adenosine receptor (Homo sapiens, UniProt P30542).
T3 sequence (P30542 1-326): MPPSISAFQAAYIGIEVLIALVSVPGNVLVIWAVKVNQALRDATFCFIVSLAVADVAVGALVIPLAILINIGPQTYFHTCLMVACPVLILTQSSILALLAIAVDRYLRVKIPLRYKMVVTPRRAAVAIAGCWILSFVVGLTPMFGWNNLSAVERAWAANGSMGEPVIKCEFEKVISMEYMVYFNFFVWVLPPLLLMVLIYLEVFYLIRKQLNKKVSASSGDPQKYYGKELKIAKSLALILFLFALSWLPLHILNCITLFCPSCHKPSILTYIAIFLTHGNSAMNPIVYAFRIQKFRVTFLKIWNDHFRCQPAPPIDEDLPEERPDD
The series is described as follows: [3H]-DPCPX binding to human A1 adenosine receptor expressed in CHO cells. Particulars: for [3H] DPCPX binding to hA1, percentage in parentheses: percentage given after the > bound, meaning not defined in the patent.
Description: as §1, §2, §3

Setting [5] is: read-out: [3H] DPCPX binding to hA1, CHO cell membranes, 1 nM [3H]-DPCPX, geometric mean with confidence limits in parentheses.

The term melting point denotes the temperature, or range, at which the solid turns liquid. The IC50 is the midpoint of a concentration-inhibition curve.

Like-named read-outs stand apart in the source and are kept apart here.

Chain of human recombinant A2A adenosine receptors (P29274 whole entry): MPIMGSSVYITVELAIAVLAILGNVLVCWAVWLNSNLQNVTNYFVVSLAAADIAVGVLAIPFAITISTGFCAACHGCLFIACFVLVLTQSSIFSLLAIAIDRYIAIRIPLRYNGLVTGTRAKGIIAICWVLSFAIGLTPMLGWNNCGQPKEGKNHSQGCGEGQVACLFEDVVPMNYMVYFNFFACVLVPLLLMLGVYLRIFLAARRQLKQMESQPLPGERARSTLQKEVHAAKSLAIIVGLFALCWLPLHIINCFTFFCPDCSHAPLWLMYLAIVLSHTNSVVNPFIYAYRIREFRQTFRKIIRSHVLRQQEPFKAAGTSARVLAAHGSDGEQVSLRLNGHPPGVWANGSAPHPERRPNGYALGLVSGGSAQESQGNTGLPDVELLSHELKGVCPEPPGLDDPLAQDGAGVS

Regarding `CCCn1c(=O)c2c(nc3[nH]c(CC)c(C)n32)n(Cc2ccccc2)c1=O` [Compound 26, 1-Benzyl-7-ethyl-6-methyl-3-propyl-1H-imidazo[1,2-f]purine-2,4(3H,8H)-dione], the melting point was 230 °C. Also, the “cAMP assay in CHO hA22B, percentage in parentheses” value (“cAMP assay in CHO hA22B, percentage” below) in series [1] is recorded as 73%. In addition, the Ki in series [2] was found to be 0.06 µM. The “[3H] ZM 241385 binding to hA2A receptors, percentage in parentheses” value in series [3] came to 97%. For the same compound, the “[3H] DPCPX binding to hA1, percentage in parentheses” value in series [4] was found to be 80%.
`CCCn1c(=O)c2c(nc3[nH]c(C)c(C)n32)n(Cc2ccccc2)c1=O` [Compound 25, 1-Benzyl-6,7-dimethyl-3-propyl-1H-imidazo[1,2-f]purine-2,4(3H,8H)-dione] registered a melting point of 259 °C. Also, the “cAMP assay in CHO hA22B, percentage” value in series [1] is reported as 82%. Besides, the Ki in series [2] was 0.036 µM. Further, the “[3H] ZM 241385 binding to hA2A receptors, percentage in parentheses” value in series [3] is 92%. For the same compound, in series [4], the “[3H] DPCPX binding to hA1, percentage in parentheses” value is listed as 84%.
On to `CCCn1c(=O)c2c(nc3[nH]c(C4CC4)cn32)n(Cc2ccccc2)c1=O` [Compound 23, 1-Benzyl-7-cyclopropyl-3-propyl-1H-imidazo[1,2-f]purine-2,4(3H,8H)-dione], for which the melting point lay within 244 to 245 °C. The “cAMP assay in CHO hA22B, percentage” value in series [1] came to 79%. Moreover, the Ki in series [2] turned out to be 0.023 µM. The “[3H] ZM 241385 binding to hA2A receptors, percentage in parentheses” value in series [3] was 98%. Besides, the Ki in series [4] (setting [5]) worked out at 0.35 µM.
`CCCn1c(=O)c2c(nc3[nH]c(-c4ccc(-c5ccccc5)cc4)cn32)n(Cc2ccccc2)c1=O` [Compound 4, 1-Benzyl-7-(biphenyl-4-yl)-3-propyl-1H-imidazo[1,2-f]purine-2,4(3H,8H)-dione]: the melting point was 272 °C. In series [2], the Ki is above 1 µM and the “[3H] MRE3008F20 binding to hA3 receptors, percentage in parentheses” value is given as “(90%)”. The “[3H] ZM 241385 binding to hA2A receptors, percentage in parentheses” value in series [3] amounted to 98%. Also, the “[3H] DPCPX binding to hA1, percentage in parentheses” value in series [4] is listed as 95%.
Regarding `CCCn1c(=O)c2c(nc3[nH]c(C(C)(C)C)cn32)n(Cc2ccccc2)c1=O` [Compound 22, 1-Benzyl-7-tert-butyl-3-propyl-1H-imidazo[1,2-f]purine-2,4(3H,8H)-dione], the melting point amounted to 230 °C. Besides, the “cAMP assay in CHO hA22B, percentage” value in series [1] is listed as 86%. In addition, in series [2], the Ki came to 0.099 µM. Also, the “[3H] ZM 241385 binding to hA2A receptors, percentage in parentheses” value in series [3] came out at 99%. Also, the “[3H] DPCPX binding to hA1, percentage in parentheses” value in series [4] stood at 51%.
As to `CCCn1c(=O)c2c(nc3[nH]c(-c4ccc(F)cc4)cn32)n(Cc2ccccc2)c1=O` [Compound 5, 1-Benzyl-7-(4-fluorophenyl)-3-propyl-1H-imidazo[1,2-f]purine-2,4(3H,8H)-dione], the melting point turned out to be 250 °C. For the same compound, the Ki in series [2] came out at 0.022 µM. In series [3], the “[3H] ZM 241385 binding to hA2A receptors, percentage in parentheses” value came out at 97%. Besides, the “[3H] DPCPX binding to hA1, percentage in parentheses” value in series [4] was 90%.
Take `CCCn1c(=O)c2c(nc3[nH]c(-c4ccccc4)cn32)n(Cc2ccccc2)c1=O` [Compound 2, 1-Benzyl-7-phenyl-3-propyl-1H-imidazo[1,2-f]purine-2,4(3H,8H)-dione]: the melting point amounted to 255 °C. For the same compound, the Ki in series [2] is 0.115 µM. In addition, the “[3H] ZM 241385 binding to hA2A receptors, percentage in parentheses” value in series [3] was determined as 99%. The “[3H] DPCPX binding to hA1, percentage in parentheses” value in series [4] came out at 83%.
As for `CCCn1c(=O)c2c(nc3[nH]c(C(C)C)cn32)n(Cc2ccccc2)c1=O` [Compound 21, 1-Benzyl-7-isopropyl-3-propyl-1H-imidazo[1,2-f]purine-2,4(3H,8H)-dione], the melting point fell in the range of 128 to 130 °C. Besides, the “cAMP assay in CHO hA22B, percentage” value in series [1] was found to be 77%. For the same compound, the Ki in series [2] came out at 0.031 µM. For the same compound, in series [3], the “[3H] ZM 241385 binding to hA2A receptors, percentage in parentheses” value was 91%. Further, the Ki in series [4] (setting [5]) was 0.46 µM.
For the compound `CCCn1c(=O)c2c(nc3[nH]c(C)cn32)n(Cc2ccccc2)c1=O` [Compound 10, 1-Benzyl-7-methyl-3-propyl-1H-imidazo[1,2-f]purine-2,4(3H,8H)-dione], the melting point is 255 °C. For the same compound, the IC50 in series [1] came out at 2.06 µM.
The compound `CCCn1c(=O)c2c(nc3[nH]c(-c4ccc(OC)cc4)cn32)n(Cc2ccccc2)c1=O` [Compound 3, 1-Benzyl-7-(4-methoxyphenyl)-3-propyl-1H-imidazo[1,2-f]purine-2,4(3H,8H)-dione] showed a melting point of 257 °C. Further, the Ki in series [2] is 0.055 µM. In series [3], the “[3H] ZM 241385 binding to hA2A receptors, percentage in parentheses” value stood at 99%. Moreover, in series [4], the “[3H] DPCPX binding to hA1, percentage in parentheses” value is 99%.
`CCCn1c(=O)c2c(nc3[nH]c(C4CCCCC4)cn32)n(Cc2ccccc2)c1=O` [Compound 24, 1-Benzyl-7-cyclohexyl-3-propyl-1H-imidazo[1,2-f]purine-2,4(3H,8H)-dione]: the melting point was 130 to 132 °C. Besides, the “cAMP assay in CHO hA22B, percentage” value in series [1] came to 71%. Moreover, the Ki in series [2] amounted to 0.555 µM. For the same compound, the “[3H] ZM 241385 binding to hA2A receptors, percentage in parentheses” value in series [3] amounted to 99%. In series [4], the “[3H] DPCPX binding to hA1, percentage in parentheses” value is recorded as 72%.
In the same order, the values of `CCCn1c(=O)c2c(nc3[nH]c(CC)cn32)n(Cc2ccccc2)c1=O` [Compound 20, 1-Benzyl-7-ethyl-3-propyl-1H-imidazo[1,2-f]purine-2,4(3H,8H)-dione] are 285 °C, 97%, 0.015 µM, 99% and 65%.
For the compound `Cc1cn2c(nc3c2c(=O)n(C)c(=O)n3C)[nH]1` [Compound 27, 1,3,7-Trimethyl-1H-imidazo[1,2-f]purine-2,4(3H,8H)-dione], in series [1], the IC50 is above 1 µM and the “cAMP assay in CHO hA22B, percentage” value is 88%. For the same compound, in series [2], the Ki was above 1 µM and the “[3H] MRE3008F20 binding to hA3 receptors, percentage in parentheses” value is recorded as “(93%)”. In series [3], the Ki is above 1 µM and the “[3H] ZM 241385 binding to hA2A receptors, percentage in parentheses” value was found to be 99%. Further, in series [4], the Ki is above 1 µM and the “[3H] DPCPX binding to hA1, percentage in parentheses” value is 96%.
